Assay results from ChEMBL document CHEMBL5226286, “The application of isatin-based multicomponent-reactions in the quest for new bioactive and druglike molecules” (Eur J Med Chem, 2021).
Values after ≈ are worked out from the molar mass of the structure shown.

How the values were obtained:
[1] = tested on: Mycobacterium tuberculosis variant bovis; assay: Antimycobacterial activity against active stage of Mycobacterium bovis BCG ATCC 35743 assessed as minimum inhibitory concentration by NR assay; type: functional
[2] = tested on: Mycobacterium tuberculosis variant bovis; assay: Antimycobacterial activity against dormant stage of Mycobacterium bovis BCG ATCC 35743 assessed as minimum inhibitory concentration by NR assay; type: functional

Row | SMILES | MIC [1] [µg/mL] | MIC [2] [µg/mL]
1 | Cc1cc2c(c(=O)o1)C1(C(=O)N(Cc3cn(Cc4ccc(Cl)cc4)nn3)c3ccc(Cl)cc31)C(C#N)=C(N)O2 (stereo not drawn) | 3.04 (≈ 5.42 µM) | 7.73 (≈ 13.8 µM)
2 | Cc1cc2c(c(=O)o1)C1(C(=O)N(Cc3cn(Cc4ccc(Cl)cc4)nn3)c3ccccc31)C(C#N)=C(N)O2 (stereo not drawn) | 2.97 (≈ 5.64 µM) | 4.35 (≈ 8.26 µM)
3 | Cc1cc2c(c(=O)o1)C1(C(=O)N(Cc3cn(Cc4ccc(Cl)cc4)nn3)c3ccc(Br)cc31)C(C#N)=C(N)O2 (stereo not drawn) | 4.12 (≈ 6.8 µM) | 3.97 (≈ 6.55 µM)
4 | Cc1ccc(Cn2cc(CN3C(=O)C4(C(C#N)=C(N)OC5=C4C(=O)CC(C)(C)C5)c4cc(Br)ccc43)nn2)cc1 (stereo not drawn) | 2.87 (≈ 4.79 µM) | 6.23 (≈ 10.4 µM)
5 | CO[C@H]1/C=C/O[C@@]2(C)Oc3c(C)c(O)c4c(O)c(c(/C=N/N5CCN(C)CC5)c(O)c4c3C2=O)NC(=O)/C(C)=C\C=C\[C@H](C)[C@H](O)[C@@H](C)[C@@H](O)[C@@H](C)[C@H](OC(C)=O)[C@@H]1C [RIFAMPIN] | 0.45 (≈ 0.547 µM) | 0.81 (≈ 0.984 µM)
6 | Cc1ccc(Cn2cc(CN3C(=O)C4(C(C#N)=C(N)Oc5cc(C)oc(=O)c54)c4cc(Cl)ccc43)nn2)cc1 (stereo not drawn) | 5.24 (≈ 9.69 µM) | 5.23 (≈ 9.67 µM)
7 | Cc1ccc(Cn2cc(CN3C(=O)C4(C(C#N)=C(N)Oc5cc(C)oc(=O)c54)c4ccccc43)nn2)cc1 (stereo not drawn) | 7.42 (≈ 14.6 µM) | 5.36 (≈ 10.6 µM)
8 | CC1(C)CC(=O)C2=C(C1)OC(N)=C(C#N)C21C(=O)N(Cc2cn(Cc3ccc(Cl)cc3)nn2)c2ccc(Br)cc21 (stereo not drawn) | 4.32 (≈ 6.97 µM) | 3.16 (≈ 5.1 µM)
9 | CC1(C)CC(=O)C2=C(C1)OC(N)=C(C#N)C21C(=O)N(Cc2cn(Cc3ccc(Cl)cc3)nn2)c2ccc(Cl)cc21 (stereo not drawn) | 2.87 (≈ 4.99 µM) | 3.09 (≈ 5.37 µM)
